These results are taken from patent publication US11174253B2, “Compound and pharmaceutical composition containing the same” (ALPHALA CO., LTD., priority 2017, dated 2021).

The structures appear in SMILES notation.

What all share (assay type): cell-based
Assay [1] concerns NCI-H460 human lung cancer cell line. The assay is described as follows: MTS cell viability assay (NCI-60 methodology), GI50/LC50, NCI-H460. Particulars: 48 h, NCI-H460 cells, 2 days incubation with compound. Summed up: (§1)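 Cells were plated 24 h before treatment, and a time-zero plate was read by MTS. Five 2-fold dilutions plus DMSO were then added for 48 h, and viability was measured by MTS. GI50 is from [(Ti−Tz)/(C−Tz)]×100=50 and LC50 from [(Ti−Tz)/Tz]×100=−50.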
A general note: Tetrazolium dyes change colour on reduction, which living cells bring about.

Assay [2] has as its system Hep3B hepatocellular carcinoma cell line. Put plainly: MTS cell viability assay (NCI-60 methodology), GI50/LC50, Hep3B. Particulars: Homo sapiens, 48 h, Hep3B cells, 2 days incubation with compound. Summed up:
as §1

For assay [3], the system named is SW480 colon adenocarcinoma cell line. Put plainly: MTS cell viability assay (NCI-60 methodology), GI50/LC50, SW480. Particulars: Homo sapiens, 48 h, SW480 cells, 2 days incubation with compound. A digest of the protocol: as §1
Assay [4] deals with hepatocellular carcinoma cell line Hep3B. The assay is described as follows: Growth inhibition of Hep3B cells, 48 hr treatment, Hoechst 33342 nucleus count (GE InCell 2200). Conditions: Homo sapiens. Summed up:
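Compound exposure lasted 48 hr at 37° C, 5% CO2. Surviving nuclei were counted after Hoechst 33342 staining, and survival was expressed as the treated/non-treated cell number ratio, including the ratio at 10 μM compound.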

Setting [5] is: Table 5, ratio of number of tumor cells treated with 10 μM compound to non-treated cells.
Where [6] appears, read: Table 6, ratio of number of tumor cells treated with 10 μM compound to non-treated cells.

Broadly, the GI50 is the concentration at which growth is held to half of that of the control. As usually defined, the LC50 is the concentration lethal to half of the exposed cells or organisms. Broadly, the viability is a per cent measure of how many cells are alive, often set against a control. As for `CCC(C)(C)c1ccc(-c2nc(NC(=O)c3ccc([N+](=O)[O-])s3)sc2Oc2ccc(F)cc2)cc1` [Compound 5-63, N-(5-(4-fluorophenoxy)-4-(4-(tert-pentyl)phenyl)thiazol-2-yl)-5-nitrothiophene-2-carboxamide], in assay [1], the GI50 was 680 nM and the LC50 (concentration giving 50% net cell loss versus time zero, NCI-60 definition) was 1110 nM. Moreover, in assay [2], the 50% growth inhibitory concentration (GI50) stood at 430 nM and the median lethal concentration (LC50) came out at 950 nM. For the same compound, in assay [3], the concentration for 50% growth inhibition (GI50) was 880 nM and the LC50 (NCI-60 lethal concentration, 50% net cell loss vs time zero) was found to be 1850 nM. The viability at 10 µM in assay [4] (setting [5]) worked out at 37%.
As to `CCCCOc1ccc(Oc2sc(NC(=O)c3ccc([N+](=O)[O-])s3)nc2-c2ccc(F)cc2)cc1` [Compound 5-66, N-(5-(4-butoxyphenoxy)-4-(4-fluorophenyl)thiazol-2-yl)-5-nitrothiophene-2-carboxamide], in assay [1], the GI50 turned out to be 390 nM and the LC50 (concentration giving 50% net cell loss versus time zero, NCI-60 definition) is 1130 nM. For the same compound, in assay [2], the GI50 was found to be 520 nM and the median lethal concentration (LC50) is 760 nM. In assay [3], the GI50 amounted to 950 nM and the LC50 (NCI-60 lethal concentration, 50% net cell loss vs time zero) was 2810 nM. Also, in assay [4] (setting [5]), the viability at 10 µM is 43%.
As to `CCCCCCOc1ccc(-c2nc(NC(=O)c3ccc([N+](=O)[O-])s3)sc2Oc2ccccc2)cc1` [Compound 5-67, N-(4-(4-(hexyloxy)phenyl)-5-phenoxythiazol-2-yl)-5-nitrothiophene-2-carboxamide], in assay [1], the GI50 was 790 nM and the LC50 (concentration giving 50% net cell loss versus time zero, NCI-60 definition) turned out to be 1350 nM. Also, in assay [2], the GI50 came out at 620 nM and the LC50 worked out at 690 nM. For the same compound, in assay [3], the GI50 came out at 1030 nM and the LC50 (NCI-60 lethal concentration, 50% net cell loss vs time zero) was determined as 1910 nM. The viability at 10 µM in assay [4] (setting [5]) was 46%.
As to `CCC(C)(C)c1ccc(Oc2sc(NC(=O)c3ccc([N+](=O)[O-])s3)nc2-c2ccc(C(F)(F)F)cc2)cc1` [Compound 5-71, 5-nitro-N-(5-(4-(tert-pentyl)phenoxy)-4-(4-(trifluoromethyl)phenyl)thiazol-2-yl)thiophene-2-carboxamide], in assay [1], the GI50 worked out at 1530 nM and the LC50 (concentration giving 50% net cell loss versus time zero, NCI-60 definition) was 2400 nM. For the same compound, in assay [2], the GI50 amounted to 630 nM and the LC50 was determined as 660 nM. Also, in assay [3], the GI50 amounted to 810 nM and the LC50 (NCI-60 lethal concentration, 50% net cell loss vs time zero) worked out at 1720 nM. In addition, in assay [4] (setting [5]), the viability at 10 µM was 49%.
Turning to `CC(C)(C)c1ccc(-c2nc(NC(=O)c3ccc([N+](=O)[O-])s3)sc2Oc2ccc(C(F)(F)F)cc2)cc1` [Compound 5-74, N-(4-(4-(tert-butyl)phenyl)-5-(4-(trifluoromethyl)phenoxy)thiazol-2-yl)-5-nitrothiophene-2-carboxamide], in assay [1], the GI50 was 720 nM and the LC50 (concentration giving 50% net cell loss versus time zero, NCI-60 definition) stood at 1300 nM. In addition, in assay [2], the concentration for 50% growth inhibition (GI50) is 1160 nM and the LC50 stood at 1680 nM. In assay [3], the GI50 stood at 690 nM and the LC50 (NCI-60 lethal concentration, 50% net cell loss vs time zero) was 1290 nM. Besides, the viability at 10 µM in assay [4] (setting [5]) came out at 33%.
With `CC(C)(C)c1ccc(-c2nc(NC(=O)c3ccc([N+](=O)[O-])s3)sc2Oc2ccccc2C(F)(F)F)cc1` [Compound 5-75, N-(4-(4-(tert-butyl)phenyl)-5-(2-(trifluoromethyl)phenoxy)thiazol-2-yl)-5-nitrothiophene-2-carboxamide], in assay [1], the concentration for 50% growth inhibition (GI50) worked out at 670 nM and the LC50 (concentration giving 50% net cell loss versus time zero, NCI-60 definition) turned out to be 1110 nM. In addition, in assay [2], the GI50 stood at 800 nM and the LC50 turned out to be 1310 nM. In assay [3], the 50% growth inhibitory concentration (GI50) came to 730 nM and the LC50 (NCI-60 lethal concentration, 50% net cell loss vs time zero) was 1670 nM. The viability at 10 µM in assay [4] (setting [5]) was found to be 34%.
In the case of `CCCCCOc1ccc(-c2nc(NC(=O)c3ccc([N+](=O)[O-])s3)sc2Oc2ccccc2)cc1` [Compound 5-76, 5-nitro-N-(4-(4-(pentyloxy)phenyl)-5-phenoxythiazol-2-yl)thiophene-2-carboxamide], in assay [1], the GI50 was 740 nM and the LC50 (concentration giving 50% net cell loss versus time zero, NCI-60 definition) worked out at 1520 nM. For the same compound, in assay [2], the GI50 was 560 nM and the median lethal concentration (LC50) came out at 1720 nM. In assay [3], the GI50 was 1270 nM and the LC50 (NCI-60 lethal concentration, 50% net cell loss vs time zero) was determined as 5820 nM. For the same compound, in assay [4] (setting [5]), the viability at 10 µM stood at 38%.
As for `CCCCc1ccc(-c2nc(NC(=O)c3ccc([N+](=O)[O-])s3)sc2Oc2ccccc2F)cc1` [Compound 5-80, N-(4-(4-butylphenyl)-5-(2-fluorophenoxy)thiazol-2-yl)-5-nitrothiophene-2-carboxamide], in assay [1], the 50% growth inhibitory concentration (GI50) is 840 nM and the LC50 (concentration giving 50% net cell loss versus time zero, NCI-60 definition) was found to be 1750 nM. In assay [2], the GI50 was 680 nM and the 50% lethal concentration (LC50) was 1280 nM. In addition, in assay [3], the GI50 is 1460 nM and the LC50 (NCI-60 lethal concentration, 50% net cell loss vs time zero) came out at 4170 nM. Also, the viability at 10 µM in assay [4] (setting [5]) was determined as 26%.
As for `O=C(Nc1nc(-c2ccc(C(F)(F)F)cc2)c(Oc2ccccc2)s1)c1ccc([N+](=O)[O-])s1` [Compound 5-81, 5-nitro-N-(5-phenoxy-4-(4-(trifluoromethyl)phenyl)thiazol-2-yl)thiophene-2-carboxamide], in assay [1], the 50% growth inhibitory concentration (GI50) came out at 810 nM and the LC50 (concentration giving 50% net cell loss versus time zero, NCI-60 definition) is 2110 nM. Also, in assay [2], the concentration for 50% growth inhibition (GI50) was determined as 980 nM and the LC50 was 4230 nM. For the same compound, in assay [3], the GI50 was 2470 nM and the LC50 (NCI-60 lethal concentration, 50% net cell loss vs time zero) was determined as 8600 nM. In addition, the viability at 10 µM in assay [4] (setting [5]) turned out to be 30%.
With `O=C(Nc1nc(-c2ccc(OC(F)(F)F)cc2)c(Oc2ccccc2F)s1)c1ccc([N+](=O)[O-])s1` [Compound 5-85, N-(5-(2-fluorophenoxy)-4-(4-(trifluoromethoxy)phenyl)thiazol-2-yl)-5-nitrothiophene-2-carboxamide], in assay [1], the GI50 came to 750 nM and the LC50 (concentration giving 50% net cell loss versus time zero, NCI-60 definition) worked out at 1580 nM. In addition, in assay [2], the GI50 turned out to be 870 nM and the 50% lethal concentration (LC50) is 2540 nM. For the same compound, in assay [3], the GI50 came out at 1660 nM and the LC50 (NCI-60 lethal concentration, 50% net cell loss vs time zero) is 5730 nM. For the same compound, the viability at 10 µM in assay [4] (setting [5]) turned out to be 34%.
As to `Cc1ccc(-c2nc(NC(=O)c3ccc([N+](=O)[O-])s3)sc2-c2cc(C(F)(F)F)cc(C(F)(F)F)c2)cc1` [Compound 6-5, N-(5-(3,5-bis(trifluoromethyl)phenyl)-4-(p-tolyl)thiazol-2-yl)-5-nitrothiophene-2-carboxamide], in assay [1], the GI50 came to 1120 nM and the LC50 (concentration giving 50% net cell loss versus time zero, NCI-60 definition) came to 1630 nM. For the same compound, in assay [2], the GI50 amounted to 950 nM and the median lethal concentration (LC50) was determined as 1080 nM. In assay [3], the GI50 was 1200 nM and the LC50 (NCI-60 lethal concentration, 50% net cell loss vs time zero) turned out to be 1410 nM. In addition, the viability at 10 µM in assay [4] (setting [6]) was determined as 46%.
In the case of `CCCOc1ccc(-c2nc(NC(=O)c3ccc([N+](=O)[O-])s3)sc2-c2ccc(F)cc2)cc1` [Compound 6-16, N-(5-(4-fluorophenyl)-4-(4-propoxyphenyl)thiazol-2-yl)-5-nitrothiophene-2-carboxamide], in assay [1], the GI50 is 860 nM and the LC50 (concentration giving 50% net cell loss versus time zero, NCI-60 definition) was 1750 nM. For the same compound, in assay [2], the concentration for 50% growth inhibition (GI50) is 1240 nM and the LC50 worked out at 1830 nM. In assay [3], the GI50 was found to be 1890 nM and the LC50 (NCI-60 lethal concentration, 50% net cell loss vs time zero) is 2790 nM. For the same compound, the viability at 10 µM in assay [4] (setting [6]) stood at 59%.
